Laboratory results as given in the supplement of paper PMC11451515.

Tested on: SEM cells
Assay: cell viability relative to DMSO control; higher = less cytotoxic
Settings: 48 h
Method in brief: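 Viability is a per-plate percentage relative to DMSO wells, with cell-free wells as background. CellTiter-Glo One luminescence was read after 48 h at 37°C on 1536-well plates (5 μl) of NOMO1 or SEM (500 cells/well) or P12-Ichikawa (1000 cells/well) leukemia cells. The cells had been adapted for at least four passages in each medium and pin-dosed with library compounds in DMSO from 47 μM to 0.79 nM in 11 threefold steps.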

[1] = HPLM + 10% dialyzed FBS, 0.000781 µM
[2] = HPLM + 10% dialyzed FBS, 0.00234 µM
[3] = HPLM + 10% dialyzed FBS, 0.00702 µM
[4] = HPLM + 10% dialyzed FBS, 0.0211 µM
[5] = HPLM + 10% dialyzed FBS, 0.0632 µM
[6] = HPLM + 10% dialyzed FBS, 0.19 µM
[7] = HPLM + 10% dialyzed FBS, 0.569 µM
[8] = HPLM + 10% dialyzed FBS, 1.71 µM
[9] = HPLM + 10% dialyzed FBS, 5.12 µM
[10] = HPLM + 10% dialyzed FBS, 15.4 µM
[11] = HPLM + 10% dialyzed FBS, 46.1 µM
[12] = RPMI 5 mM glucose + 10% FBS, 0.000781 µM
[13] = RPMI 5 mM glucose + 10% FBS, 0.00234 µM
[14] = RPMI 5 mM glucose + 10% FBS, 0.00702 µM
[15] = RPMI 5 mM glucose + 10% FBS, 0.0211 µM
[16] = RPMI 5 mM glucose + 10% FBS, 0.0632 µM
[17] = RPMI 5 mM glucose + 10% FBS, 0.19 µM
[18] = RPMI 5 mM glucose + 10% FBS, 0.569 µM
[19] = RPMI 5 mM glucose + 10% FBS, 1.71 µM
[20] = RPMI 5 mM glucose + 10% FBS, 5.12 µM
[21] = RPMI 5 mM glucose + 10% FBS, 15.4 µM
[22] = RPMI 5 mM glucose + 10% FBS, 46.1 µM
[23] = RPMI 5 mM glucose + 10% dialyzed FBS, 0.000781 µM
[24] = RPMI 5 mM glucose + 10% dialyzed FBS, 0.00234 µM
[25] = RPMI 5 mM glucose + 10% dialyzed FBS, 0.00702 µM
[26] = RPMI 5 mM glucose + 10% dialyzed FBS, 0.0211 µM
[27] = RPMI 5 mM glucose + 10% dialyzed FBS, 0.0632 µM
[28] = RPMI 5 mM glucose + 10% dialyzed FBS, 0.19 µM
[29] = RPMI 5 mM glucose + 10% dialyzed FBS, 0.569 µM
[30] = RPMI 5 mM glucose + 10% dialyzed FBS, 1.71 µM
[31] = RPMI 5 mM glucose + 10% dialyzed FBS, 5.12 µM
[32] = RPMI 5 mM glucose + 10% dialyzed FBS, 15.4 µM
[33] = RPMI 5 mM glucose + 10% dialyzed FBS, 46.1 µM

Structure (SMILES)	cell viability [1] [%]	cell viability [2] [%]	cell viability [3] [%]	cell viability [4] [%]	cell viability [5] [%]	cell viability [6] [%]	cell viability [7] [%]	cell viability [8] [%]	cell viability [9] [%]	cell viability [10] [%]	cell viability [11] [%]	cell viability [12] [%]	cell viability [13] [%]	cell viability [14] [%]	cell viability [15] [%]	cell viability [16] [%]	cell viability [17] [%]	cell viability [18] [%]	cell viability [19] [%]	cell viability [20] [%]	cell viability [21] [%]	cell viability [22] [%]	cell viability [23] [%]	cell viability [24] [%]	cell viability [25] [%]	cell viability [26] [%]	cell viability [27] [%]	cell viability [28] [%]	cell viability [29] [%]	cell viability [30] [%]	cell viability [31] [%]	cell viability [32] [%]	cell viability [33] [%]
C[N]1N=CC2=C1C=C(C(=C2)OC3=CC=C(NC(=O)\C4=C\C=C(\C)N(C4=O)C5=CC=C(F)C=C5)C=C3F)C6=C[NH]N=C6	98.7	93.2	94.4	94.5	62.3	54	48.3	43	11.1	6.77	7.19	91.5	100	96.6	84.3	54.7	56.1	59.1	38.9	9.63	8.07	8.6	98.5	105	97.8	89.4	54.5	52.1	50.8	43.7	11.4	7.29	7.53
CCCC(CCC)C(=O)[O-]	87	88.8	110	97.5	92.3	91	103	112	93.3	100	88.6	104	103	121	123	115	102	125	125	115	116	135	74.3	105	95.3	124	89.7	96.8	107	118	107	98.1	108
O=C(C[C@@H]1C/C=C\CCC(=O)O[C@H](c2ccccc2)CNC1=O)NCc1ccc(Cl)cc1	77	109	46.9	111	109	118	128	107	107	112	118	85.7	102	11.1	88.8	95.7	96.3	101	102	98.9	90.9	94	83.6	106	34.3	121	116	128	122	104	107	103	102
O=C(O)CSCC(=O)NC1CCSC1=O (centres undefined)	77.6	98.4	91.5	80.6	99.3	91.9	112	102	100	89.5	92.6	73.3	87.6	96.4	92.9	107	113	111	104	101	97	98.8	83.4	98.4	100	100	115	105	107	108	118	104	94.9
CN(c1nccc(=O)[nH]1)C1CCN(c2nc3ccccc3n2Cc2ccc(F)cc2)CC1	105	107	115	113	112	113	108	110	115	91	123	78.4	94.8	95	80	84.8	88.9	95.3	98.1	91.9	79.7	87.7	94.7	103	102	111	106	113	109	106	101	104	99.6
Cc1cc(SCc2sc(-c3ccc(C(F)(F)F)cc3)nc2C)ccc1OCC(=O)O	98.4	102	98.3	113	102	109	113	105	99.3	48.9	98.4	94.3	101	89.4	102	102	105	100	104	114	57.5	93.5	99.9	101	96.1	97	109	92.5	102	109	99.4	48.3	97.9
CCNC(=O)Nc1ccc(-c2nc3c(c(N4CCOC[C@@H]4C)n2)CCN(C2COC2)C3)cc1	96.1	116	111	113	108	87.7	98.9	57.7	43.5	31.7	32.1	105	105	114	108	113	95.1	87.8	55.7	41.1	27	20.9	119	125	104	120	121	109	102	79.2	51.4	41	36.1
O=C([O-])[C@H](CC(=O)N1C[C@H]2CCCC[C@H]2C1)Cc1ccccc1	79.8	91.7	88.2	72.7	107	109	103	106	119	125	121	93.8	110	105	87.7	102	108	106	112	117	128	119	85.1	103	107	65.5	95.7	117	115	105	129	137	140
